Measured values published in ChEMBL document CHEMBL1155491, “Acylurea connected straight chain hydroxamates as novel histone deacetylase inhibitors: Synthesis, SAR, and in vivo antitumor activity” (Bioorg Med Chem Lett, 2010).
≈ marks a conversion by molar mass, not a printed value.

How the values were obtained:
Histone deacetylase 3 = Histone deacetylase 3 (Homo sapiens, UniProt O15379); experiment: Inhibition of HDAC3
HCT-116 = experiment: Antitumor activity against human HCT116 cells xenografted in BALB/c mouse at 100 mg/kg, po after 21 days; format: functional; settings: HCT-116, 504 h, read-out: TGI
Histone deacetylase 1 = Histone deacetylase 1 (Homo sapiens, UniProt Q13547)
Description: Inhibition of HDAC1 in human COLO205 cells assessed as induction of histone H3 acetylation

Histone deacetylase 4 = Histone deacetylase 4 (Homo sapiens, UniProt P56524); experiment: Inhibition of HDAC4
[1] = target: T1, Polyamine deacetylase HDAC10 (Homo sapiens, UniProt Q969S8); experiment: Inhibition of HDAC10
T1 sequence (Q969S8 whole entry): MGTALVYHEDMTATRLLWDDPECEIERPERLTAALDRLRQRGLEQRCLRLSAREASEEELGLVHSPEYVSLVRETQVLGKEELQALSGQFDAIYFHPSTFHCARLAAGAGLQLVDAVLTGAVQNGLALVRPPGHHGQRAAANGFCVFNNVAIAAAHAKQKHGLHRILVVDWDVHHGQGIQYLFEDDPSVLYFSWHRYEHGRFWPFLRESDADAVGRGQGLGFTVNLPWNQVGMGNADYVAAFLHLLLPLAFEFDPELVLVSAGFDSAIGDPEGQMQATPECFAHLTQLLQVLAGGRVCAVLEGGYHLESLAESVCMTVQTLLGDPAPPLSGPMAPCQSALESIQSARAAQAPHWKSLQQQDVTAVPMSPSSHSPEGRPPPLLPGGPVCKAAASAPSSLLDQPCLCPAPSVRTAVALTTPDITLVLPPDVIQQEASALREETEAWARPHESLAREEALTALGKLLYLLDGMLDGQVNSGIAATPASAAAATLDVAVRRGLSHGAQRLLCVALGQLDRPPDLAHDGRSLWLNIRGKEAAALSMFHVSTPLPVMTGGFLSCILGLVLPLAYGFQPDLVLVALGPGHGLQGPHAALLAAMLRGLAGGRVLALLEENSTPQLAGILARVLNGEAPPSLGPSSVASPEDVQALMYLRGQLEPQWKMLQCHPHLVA

A2780 = experiment: Antiproliferative activity against human A2780 cells; format: functional, cell-based
[2] = Oral bioavailability in mouse at 50 mg/kg, po; settings: in vivo
[3] = Half life in human liver microsome; format: ADME; settings: liver microsomes
PC-3 [4] = experiment: Antitumor activity against human PC3 cells xenografted in nude mouse assessed as inhibition of tumor growth at 200 mg/kg, ip administered for 21 days measured or day 22; format: functional; settings: PC-3, ip, route intraperitoneal, read-out: TGI
PC-3 [5] = experiment: Antiproliferative activity against human PC3 cells; format: functional, cell-based
[6] = Solubility at pH 7; format: physicochemical; settings: buffer
Histone deacetylase 2 = Histone deacetylase 2 (Homo sapiens, UniProt Q92769)
Sequence of Histone deacetylase 2 (Q92769 whole entry): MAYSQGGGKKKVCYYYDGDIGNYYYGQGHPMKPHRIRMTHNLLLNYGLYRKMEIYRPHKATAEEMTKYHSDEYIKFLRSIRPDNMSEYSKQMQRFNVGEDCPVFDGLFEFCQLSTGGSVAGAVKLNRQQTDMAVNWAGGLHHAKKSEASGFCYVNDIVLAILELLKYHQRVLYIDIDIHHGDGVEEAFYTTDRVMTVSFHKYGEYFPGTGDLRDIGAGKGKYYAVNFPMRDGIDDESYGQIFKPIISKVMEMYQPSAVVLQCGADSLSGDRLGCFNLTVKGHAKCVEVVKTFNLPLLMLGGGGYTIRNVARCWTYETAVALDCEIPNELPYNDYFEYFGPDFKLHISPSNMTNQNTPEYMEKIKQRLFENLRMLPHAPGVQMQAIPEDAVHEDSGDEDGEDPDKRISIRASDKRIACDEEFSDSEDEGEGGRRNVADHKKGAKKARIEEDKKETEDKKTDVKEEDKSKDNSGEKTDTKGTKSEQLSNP

Sequence of Histone deacetylase 3 (O15379 whole entry): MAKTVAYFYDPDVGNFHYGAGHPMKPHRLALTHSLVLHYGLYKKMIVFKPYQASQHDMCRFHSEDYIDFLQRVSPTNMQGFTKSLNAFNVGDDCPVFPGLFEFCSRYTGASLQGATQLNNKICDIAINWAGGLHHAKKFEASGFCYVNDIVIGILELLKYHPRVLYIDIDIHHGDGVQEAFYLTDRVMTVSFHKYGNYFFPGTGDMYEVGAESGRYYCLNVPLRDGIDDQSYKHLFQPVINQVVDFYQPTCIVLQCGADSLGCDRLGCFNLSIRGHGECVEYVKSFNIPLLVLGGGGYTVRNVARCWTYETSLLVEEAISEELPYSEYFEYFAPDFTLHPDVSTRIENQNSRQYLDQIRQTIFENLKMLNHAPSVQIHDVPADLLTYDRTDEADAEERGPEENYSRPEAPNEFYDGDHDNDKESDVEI
Sequence of Histone deacetylase 4 (P56524 whole entry): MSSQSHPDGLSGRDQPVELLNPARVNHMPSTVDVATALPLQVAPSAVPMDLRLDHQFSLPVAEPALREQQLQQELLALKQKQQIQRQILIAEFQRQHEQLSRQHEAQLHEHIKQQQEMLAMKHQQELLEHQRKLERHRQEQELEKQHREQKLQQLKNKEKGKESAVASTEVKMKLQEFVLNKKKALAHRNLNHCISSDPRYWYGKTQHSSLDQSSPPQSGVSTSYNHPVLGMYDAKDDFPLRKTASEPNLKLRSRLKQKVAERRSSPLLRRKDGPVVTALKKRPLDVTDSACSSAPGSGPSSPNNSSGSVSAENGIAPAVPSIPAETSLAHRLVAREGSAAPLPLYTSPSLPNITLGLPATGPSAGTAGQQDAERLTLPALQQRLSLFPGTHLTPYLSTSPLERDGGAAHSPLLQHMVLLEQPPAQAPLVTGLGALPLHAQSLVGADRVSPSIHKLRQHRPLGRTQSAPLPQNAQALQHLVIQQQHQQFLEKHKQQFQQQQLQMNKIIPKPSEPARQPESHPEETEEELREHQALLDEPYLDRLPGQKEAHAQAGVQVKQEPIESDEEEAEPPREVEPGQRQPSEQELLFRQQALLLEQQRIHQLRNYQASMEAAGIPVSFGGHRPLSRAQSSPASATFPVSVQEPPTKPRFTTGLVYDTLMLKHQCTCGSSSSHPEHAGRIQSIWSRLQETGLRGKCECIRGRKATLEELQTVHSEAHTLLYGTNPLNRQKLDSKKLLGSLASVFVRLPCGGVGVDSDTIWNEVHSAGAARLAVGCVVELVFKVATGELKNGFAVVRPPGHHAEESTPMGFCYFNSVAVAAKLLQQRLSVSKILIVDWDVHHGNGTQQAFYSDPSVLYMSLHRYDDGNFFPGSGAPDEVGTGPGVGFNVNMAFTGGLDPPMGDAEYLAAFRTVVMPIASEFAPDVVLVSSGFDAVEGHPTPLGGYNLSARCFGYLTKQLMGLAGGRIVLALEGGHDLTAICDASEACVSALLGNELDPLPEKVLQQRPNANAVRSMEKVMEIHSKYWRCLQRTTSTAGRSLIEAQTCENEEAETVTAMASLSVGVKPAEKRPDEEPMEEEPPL
Sequence of Histone deacetylase 1 (Q13547 whole entry): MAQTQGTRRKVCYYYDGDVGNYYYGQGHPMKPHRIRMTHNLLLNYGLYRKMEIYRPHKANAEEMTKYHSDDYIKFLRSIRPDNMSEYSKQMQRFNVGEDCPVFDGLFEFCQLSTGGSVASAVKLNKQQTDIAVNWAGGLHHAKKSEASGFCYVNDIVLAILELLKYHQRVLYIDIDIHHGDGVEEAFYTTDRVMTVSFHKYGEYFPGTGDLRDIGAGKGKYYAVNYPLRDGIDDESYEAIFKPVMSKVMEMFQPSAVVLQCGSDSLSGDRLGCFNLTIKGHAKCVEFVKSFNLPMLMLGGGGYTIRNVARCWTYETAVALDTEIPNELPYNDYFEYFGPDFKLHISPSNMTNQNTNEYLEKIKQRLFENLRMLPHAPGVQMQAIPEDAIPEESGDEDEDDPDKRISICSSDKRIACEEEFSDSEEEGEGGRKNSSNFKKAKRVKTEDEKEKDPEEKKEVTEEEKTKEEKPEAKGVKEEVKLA

Question: With `O=C(CCCCCNC(=O)NC(=O)c1ccccc1)NO` as the compound, how does the Ki (Histone deacetylase 3) read?
Answer: The Ki was 23 nM.

Question: What about the inhibition in vivo at 100 mg/kg (HCT-116) of the same compound?
Answer: Its inhibition in vivo at 100 mg/kg is 80%.

Question: What about the IC50 (Histone deacetylase 1) of the same compound?
Answer: Its IC50 is 2210 nM.

Question: What about the Ki (Histone deacetylase 4) of the same compound?
Answer: Its Ki is 20 nM.

Question: What about the Ki [1] of the same compound?
Answer: The Ki was 40 nM.

Question: And the IC50 (A2780)?
Answer: The IC50 was 700 nM.

Question: What about the bioavailability [2] of the same compound?
Answer: The bioavailability was 62%.

Question: What about the half-life [3] of the same compound?
Answer: The half-life was > 1 h.

Question: What about the inhibition in vivo at 200 mg/kg (PC-3 [4]) of the same compound?
Answer: Its inhibition in vivo at 200 mg/kg is 73%.

Question: And the IC50 (PC-3 [5])?
Answer: Its IC50 is 740 nM.

Question: And the solubility [6]?
Answer: The solubility was 177 µM (≈ 51.9 µg/mL).

Question: What about the Ki (Histone deacetylase 2) of the same compound?
Answer: Its Ki is 44 nM.
